Measurements taken from patent publication US9357779B2 (priority 2010, dated 2016).

Legend:
[1] = for log P [a]: acidic range, pH 2.7, 0.1% aqueous formic acid/acetonitrile; for log P [a][d]: pH 2.7, major isomer; for log P [a][e]: pH 2.7, minor isomer
Experimental: (§1) Calibration was carried out using unbranched alkan-2-ones (having from 3 to 16 carbon atoms) with known log P values (the log P values were determined by the retention times using linear interpolation between two successive alkanones).

Phytophthora infestans = assay type: in vivo; conditions: tomato plants, protective, active compound concentration 500 ppm, evaluation 7 days after inoculation
[2] = pH 2.7, log P [a], acidic range, pH 2.7, 0.1% aqueous formic acid/acetonitrile

Experimental for physchem: as §1

COc1ccc(C(=O)C#Cc2csc(C3CCN(C(=O)Cn4nc(C(F)(F)F)cc4C)CC3)n2)cc1 [Compound I-7]
log P [a] [1]: 3.54^[a]

CON(C)C(=O)c1csc(C2CCN(C(=O)OC(C)(C)C)CC2)n1 [Compound V-1, tert-Butyl 4-{4-[methoxy(methyl)carbamoyl]-1,3-thiazol-2-yl}piperidine-1-carboxylate]
chromatographic logP (physchem; pH 2.7): 2.4

COc1ccccc1C(=O)C#Cc1csc(C2CCN(C(=O)Cn3nc(C(F)(F)F)cc3C)CC2)n1 [Compound I-2]
log P [a] [1]: 3.35^[a];

Cc1cc(C(F)(F)F)nn1CC(=O)N1CCC(c2nc(C(=O)Cc3ccccc3Br)cs2)CC1 [Compound I-13]
log P [a] [1]: 3.67^[a];

COc1cccc(OC)c1C(=O)/C=C/c1csc(C2CCN(C(=O)Cn3nc(C(F)F)cc3C(F)F)CC2)n1 [Compound I-39]
efficacy (Phytophthora infestans): 90%
log P [a] [1]: 3.04^[a]

O=C(/C=C/c1csc(C2CCN(C(=O)Cn3nc(C(F)F)cc3C(F)F)CC2)n1)c1ccccc1 [Compound I-37]
efficacy (Phytophthora infestans): 95%
log P [a] [1]: 3.31^[a];

Cc1cccc(C)c1C(=O)/C=C/c1csc(C2CCN(C(=O)Cn3nc(C(F)F)cc3C(F)F)CC2)n1 [Compound I-63]
log P [a] [1]: 3.65^[a];

Cc1cc(C(F)(F)F)nn1CC(=O)N1CCC(c2nc(C#CC(=O)c3ccco3)cs2)CC1 [Compound I-10]
log P [a] [1]: 2.92^[a]

Cc1cc(C(F)(F)F)nn1CC(=O)N1CCC(c2nc(C(=O)/C=C/c3c(F)cccc3F)cs2)CC1 [Compound I-12, (2E)-3-(2,6-Difluorophenyl)-1-[2-(1-{[5-methyl-3-(trifluoromethyl)-1H-pyrazol-1-yl]acetyl}piperidin-4-yl)-1,3-thiazol-4-yl]prop-2-en-1-one]
chromatographic logP (physchem; [2]): 3.83

O=C(CC1CCCCC1)c1csc(C2CCN(C(=S)Cn3nc(C(F)F)cc3C(F)F)CC2)n1 [Compound I-58, 1-[2-(1-{2-[3,5-Bis(difluoromethyl)-1H-pyrazol-1-yl]ethanethioyl}piperidin-4-yl)-1,3-thiazol-4-yl]-2-cyclohexylethanone]
chromatographic logP (physchem; [2]): 4.63
chromatographic logP (physchem; pH 7.8): 4.56

Cc1cc(C(F)(F)F)nn1CC(=O)N1CCC(c2nc(C(=O)CC(C)(C)c3ccccc3)cs2)CC1 [Compound I-15]
log P [a] [1]: 4.08^[a]

Cc1cc(C(F)(F)F)nn1CC(=O)N1CCC(c2nc(CCC(=O)c3ccccc3Cl)cs2)CC1 [Compound I-21]
log P [a] [1]: 3.6^[a];

C#Cc1csc(C2CCN(C(=O)OC(C)(C)C)CC2)n1 [VI-1, tert-Butyl 4-(4-ethynyl-1,3-thiazol-2-yl)piperidine-1-carboxylate]
chromatographic logP (physchem; pH 2.7): 3.1

C#Cc1csc(C2CCN(C(=O)Cn3nc(C(F)(F)F)cc3C)CC2)n1 [XX-1, 1-[4-(4-Ethynyl-1,3-thiazol-2-yl)piperidin-1-yl]-2-[5-methyl-3-(trifluoromethyl)-1H-pyrazol-1-yl]ethanone]
chromatographic logP (physchem; pH 2.7): 2.61

CC(C)(C)OC(=O)N1CCC(c2nc(/C=C/C(=O)c3c(F)cccc3F)cs2)CC1 [IV-3, tert-Butyl 4-[4-[(1E)-3-(2,6-difluorophenyl)-3-oxoprop-1-en-1-yl]-1,3-thiazol-2-yl]piperidine-1-carboxylate]
chromatographic logP (physchem; pH 2.7): 4.3

CC(C)(C)OC(=O)N1CCC(c2nc(C(=O)CC3CCCCC3)cs2)CC1 [IV-1, tert-Butyl 4-[4-(cyclohexylacetyl)-1,3-thiazol-2-yl]piperidine-1-carboxylate]
chromatographic logP (physchem; pH 2.7): 5.43

CCOc1ccccc1C(=O)C#Cc1csc(C2CCN(C(=O)Cn3nc(C(F)(F)F)cc3C)CC2)n1 [Compound I-11, 1-(2-Ethoxyphenyl)-3-[2-(1-{[5-methyl-3-(trifluoromethyl)-1H-pyrazol-1-yl]acetyl}piperidin-4-yl)-1,3-thiazol-4-yl]prop-2-yn-1-one]
chromatographic logP (physchem; pH 2.7): 3.78
chromatographic logP (physchem; [2]): 3.76

Cc1cc(C(F)(F)F)nn1CC(=O)N1CCC(c2nc(C(=O)CCc3ccccc3)cs2)CC1 [Compound I-14, 1-[2-(1-{[5-Methyl-3-(trifluoromethyl)-1H-pyrazol-1-yl]acetyl}piperidin-4-yl)-1,3-thiazol-4-yl]-3-phenylpropan-1-one]
chromatographic logP (physchem; [2]): 3.64

O=C(/C=C/c1csc(C2CCN(C(=O)Cn3nc(C(F)F)cc3C(F)F)CC2)n1)c1cccc(F)c1 [Compound I-41]
efficacy (Phytophthora infestans): 95%
log P [a] [1]: 3.48^[a]

CCOc1ccccc1C(=O)CCc1csc(C2CCN(C(=O)Cn3nc(C(F)(F)F)cc3C)CC2)n1 [Compound I-20, 1-(2-Ethoxyphenyl)-3-[2-(1-{[5-methyl-3-(trifluoromethyl)-1H-pyrazol-1-yl]acetyl}piperidin-4-yl)-1,3-thiazol-4-yl]propan-1-one]
chromatographic logP (physchem; [2]): 3.7
chromatographic logP (physchem; pH 7.8): 3.68

Cc1cc(C(F)(F)F)nn1CC(=O)N1CCC(c2nc(C#CC(=O)C3CCCCC3)cs2)CC1 [Compound I-4]
log P [a] [1]: 4.15^[a]

O=C(/C=C/c1csc(C2CCN(C(=O)Cn3nc(C(F)F)cc3C(F)F)CC2)n1)c1ccc(F)cc1 [Compound I-40]
log P [a] [1]: 3.43^[a]

CON=C(CC1CCCCC1)c1csc(C2CCN(C(=O)Cn3nc(C(F)F)cc3C(F)F)CC2)n1 [Compound I-60, 2-[3,5-Bis(difluoromethyl)-1H-pyrazol-1-yl]-1-{4-[4-(2-cyclohexyl-N-methoxyethanimidoyl)-1,3-thiazol-2-yl]piperidin-1-yl}ethanone]
efficacy (Phytophthora infestans): 95%
chromatographic logP (physchem; [2]): 4.8

Cc1cccc(C(=O)/C=C/c2csc(C3CCN(C(=O)Cn4nc(C(F)F)cc4C(F)F)CC3)n2)c1 [Compound I-38]
efficacy (Phytophthora infestans): 95%
log P [a] [1]: 3.64^[a];

Cc1cccc(CC(=O)c2csc(C3CCN(C(=O)Cn4nc(C(F)F)cc4C(F)F)CC3)n2)c1C [Compound I-59]
log P [a] [1]: 3.71^[a]

Cc1cc(C(F)(F)F)nn1CC(=O)N1CCC(c2nc(C#CC(=O)c3ccccc3Cl)cs2)CC1 [Compound I-5]
log P [a] [1]: 3.79^[a]

CC(C)(C)OC(=O)N1CCC(c2nc(C(=O)CCc3ccccc3)cs2)CC1 [IV-2, tert-Butyl 4-[4-(3-phenylpropanoyl)-1,3-thiazol-2-yl]piperidine-1-carboxylate]
chromatographic logP (physchem; pH 2.7): 4.54

O=C(CCc1ccccc1)c1csc(C2CCNCC2)n1 [II-2, 4-[4-(3-Phenylpropanoyl)-1,3-thiazol-2-yl]piperidinium chloride]
chromatographic logP (physchem; pH 2.7): 1.19

Cc1cc(C(F)(F)F)nn1CC(=O)N1CCC(c2nc(C#CC(=O)c3ccc(Cl)cc3Cl)cs2)CC1 [Compound I-6]
log P [a] [1]: 4.31^[a]

Cc1cc(C(F)(F)F)nn1CC(=O)N1CCC(c2nc(C#CC(=O)c3ccccc3)cs2)CC1 [Compound I-1]
log P [a] [1]: 3.58^[a]

Cc1cc(C(F)(F)F)nn1CC(=O)N1CCC(c2nc(C#CC(=O)c3cccs3)cs2)CC1 [Compound I-9]
log P [a] [1]: 3.29^[a]

Cc1cc(C(F)(F)F)nn1CC(=O)N1CCC(c2nc(C(Cl)=CC(=O)c3ccccc3)cs2)CC1 (mixture of isomers) [Compound I-26]
log P [a] [1]: 4^[a]

Cc1cc(C(F)(F)F)nn1CC(=O)N1CCC(c2nc(C(=O)Cc3ccccc3)cs2)CC1 [Compound I-16]
efficacy (Phytophthora infestans): 80%
log P [a] [1]: 3.36^[a]

C#CCOc1ccccc1C(C=Cc1csc(C2CCN(C(=O)Cn3nc(C(F)F)cc3C(F)F)CC2)n1)=NO (mixture of isomers) [Compound I-64]
log P [a][d] [1]: 3.08^[a][d];
log P [a][e] [1]: 3.30^[a][e]

O=C(CC1CCCCC1)c1csc(C2CCNCC2)n1 [II-1, 4-[4-(Cyclohexylacetyl)-1,3-thiazol-2-yl]piperidinium chloride]
chromatographic logP (physchem; pH 2.7): 1.35

COc1ccccc1C(=O)CCc1csc(C2CCN(C(=O)Cn3nc(C(F)(F)F)cc3C)CC2)n1 [Compound I-19]
log P [a] [1]: 3.34^[a]

O=C(/C=C/c1c(F)cccc1F)c1csc(C2CCN(C(=O)Cn3nc(C(F)F)cc3C(F)F)CC2)n1 [Compound I-62]
log P [a] [1]: 3.68^[a];

CC(C)(C)C(=O)/C=C/c1csc(C2CCN(C(=O)Cn3nc(C(F)F)cc3C(F)F)CC2)n1 [Compound I-47]
efficacy (Phytophthora infestans): 94%
log P [a] [1]: 3.45^[a]

CC(C)(C)OC(=O)N1CCC(c2nc(C(O)CCc3ccccc3)cs2)CC1 (stereo not drawn) [XVI-1, tert-Butyl 4-[4-(1-hydroxy-3-phenylpropyl)-1,3-thiazol-2-yl]piperidine-1-carboxylate]
chromatographic logP (physchem; pH 2.7): 3.79

COc1ccccc1C(=O)C=C(Cl)c1csc(C2CCN(C(=O)Cn3nc(C(F)(F)F)cc3C)CC2)n1 (mixture of isomers) [Compound I-65]
efficacy (Phytophthora infestans): 93%
log P [a][d] [1]: 3.96^[a][d];
log P [a][e] [1]: 3.79^[a][e]

Cc1cc(C(F)(F)F)nn1CC(=O)N1CCC(c2nc(C#CC(=O)c3cccc4ccccc34)cs2)CC1 [Compound I-3]
log P [a] [1]: 4.25^[a]

CO/N=C(/Cc1cccc(C)c1C)c1csc(C2CCN(C(=O)Cn3nc(C(F)F)cc3C(F)F)CC2)n1 [Compound I-61]
efficacy (Phytophthora infestans): 95%
log P [a] [1]: 4.33^[a]

Cc1cc(C(F)(F)F)nn1CC(=O)N1CCC(c2nc(C(=O)Cc3cccc4ccccc34)cs2)CC1 [Compound I-18]
log P [a] [1]: 3.87^[a]

COc1ccc(C(=O)/C=C/c2csc(C3CCN(C(=O)Cn4nc(C(F)F)cc4C(F)F)CC3)n2)c(F)c1 [Compound I-48]
efficacy (Phytophthora infestans): 94%
log P [a] [1]: 3.45^[a]

Cc1cc(C(F)(F)F)nn1CC(=O)N1CCC(c2nc(C#CC(=O)C(C)(C)C)cs2)CC1 [Compound I-8]
log P [a] [1]: 3.68^[a]

Cc1cc(C(F)(F)F)nn1CC(=O)N1CCC(c2nc(C(=O)CC3CCCCC3)cs2)CC1 [Compound I-17]
log P [a] [1]: 4.13^[a];

Cc1ccc(C)c(NC(=O)N2CCC(c3nc(/C=C/C(=O)c4c(F)cccc4F)cs3)CC2)c1 [Compound I-23]
efficacy (Phytophthora infestans): 70%
log P [a] [1]: 3.56^[a]
